Common to all, as to assay: radiometric filter-binding kinase assay, Kinaseprofiler
The subject of experiment [1] is MAPKAPK5 (human), Q8IW41 [R291E]. The note with it: ATP 15 µM.
Experiment [2] deals with PHKG2 (human), P15735 [F290L]. The conditions noted are these: ATP 10 µM.
In experiment [3] the test system is ROS1 (human), P08922 [V2262A]. The note with it: ATP 200 µM.
For experiment [4], the system named is AKT3 (human), Q9Y243 [S472D]. The note with it: ATP 45 µM.
Experiment [5] relates to CSNK1G3 (human), Q9Y6M4 [K91E/R174G/E302D]. The note with it: ATP 10 µM.
Experiment [6] has as its system GSK3B (human), P49841 [H350L]. The note with it: ATP 15 µM.

Chain of MAPKAPK5 (human), Q8IW41 [R291E] (Q8IW41 whole entry, looked up, stated change not applied): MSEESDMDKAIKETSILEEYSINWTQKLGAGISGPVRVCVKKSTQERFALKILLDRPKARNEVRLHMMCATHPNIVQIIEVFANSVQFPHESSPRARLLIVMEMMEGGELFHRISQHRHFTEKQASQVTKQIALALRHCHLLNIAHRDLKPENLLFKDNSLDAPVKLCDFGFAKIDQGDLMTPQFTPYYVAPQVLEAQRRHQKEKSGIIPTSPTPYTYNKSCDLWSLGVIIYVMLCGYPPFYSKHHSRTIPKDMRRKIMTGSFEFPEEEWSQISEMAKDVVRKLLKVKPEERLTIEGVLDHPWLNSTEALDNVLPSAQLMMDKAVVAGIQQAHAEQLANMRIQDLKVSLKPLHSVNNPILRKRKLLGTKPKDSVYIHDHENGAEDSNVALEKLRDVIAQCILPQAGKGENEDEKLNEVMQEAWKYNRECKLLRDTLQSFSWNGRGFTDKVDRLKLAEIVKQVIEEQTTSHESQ
Chain of ROS1 (human), P08922 [V2262A] (P08922 whole entry, looked up, stated change not applied): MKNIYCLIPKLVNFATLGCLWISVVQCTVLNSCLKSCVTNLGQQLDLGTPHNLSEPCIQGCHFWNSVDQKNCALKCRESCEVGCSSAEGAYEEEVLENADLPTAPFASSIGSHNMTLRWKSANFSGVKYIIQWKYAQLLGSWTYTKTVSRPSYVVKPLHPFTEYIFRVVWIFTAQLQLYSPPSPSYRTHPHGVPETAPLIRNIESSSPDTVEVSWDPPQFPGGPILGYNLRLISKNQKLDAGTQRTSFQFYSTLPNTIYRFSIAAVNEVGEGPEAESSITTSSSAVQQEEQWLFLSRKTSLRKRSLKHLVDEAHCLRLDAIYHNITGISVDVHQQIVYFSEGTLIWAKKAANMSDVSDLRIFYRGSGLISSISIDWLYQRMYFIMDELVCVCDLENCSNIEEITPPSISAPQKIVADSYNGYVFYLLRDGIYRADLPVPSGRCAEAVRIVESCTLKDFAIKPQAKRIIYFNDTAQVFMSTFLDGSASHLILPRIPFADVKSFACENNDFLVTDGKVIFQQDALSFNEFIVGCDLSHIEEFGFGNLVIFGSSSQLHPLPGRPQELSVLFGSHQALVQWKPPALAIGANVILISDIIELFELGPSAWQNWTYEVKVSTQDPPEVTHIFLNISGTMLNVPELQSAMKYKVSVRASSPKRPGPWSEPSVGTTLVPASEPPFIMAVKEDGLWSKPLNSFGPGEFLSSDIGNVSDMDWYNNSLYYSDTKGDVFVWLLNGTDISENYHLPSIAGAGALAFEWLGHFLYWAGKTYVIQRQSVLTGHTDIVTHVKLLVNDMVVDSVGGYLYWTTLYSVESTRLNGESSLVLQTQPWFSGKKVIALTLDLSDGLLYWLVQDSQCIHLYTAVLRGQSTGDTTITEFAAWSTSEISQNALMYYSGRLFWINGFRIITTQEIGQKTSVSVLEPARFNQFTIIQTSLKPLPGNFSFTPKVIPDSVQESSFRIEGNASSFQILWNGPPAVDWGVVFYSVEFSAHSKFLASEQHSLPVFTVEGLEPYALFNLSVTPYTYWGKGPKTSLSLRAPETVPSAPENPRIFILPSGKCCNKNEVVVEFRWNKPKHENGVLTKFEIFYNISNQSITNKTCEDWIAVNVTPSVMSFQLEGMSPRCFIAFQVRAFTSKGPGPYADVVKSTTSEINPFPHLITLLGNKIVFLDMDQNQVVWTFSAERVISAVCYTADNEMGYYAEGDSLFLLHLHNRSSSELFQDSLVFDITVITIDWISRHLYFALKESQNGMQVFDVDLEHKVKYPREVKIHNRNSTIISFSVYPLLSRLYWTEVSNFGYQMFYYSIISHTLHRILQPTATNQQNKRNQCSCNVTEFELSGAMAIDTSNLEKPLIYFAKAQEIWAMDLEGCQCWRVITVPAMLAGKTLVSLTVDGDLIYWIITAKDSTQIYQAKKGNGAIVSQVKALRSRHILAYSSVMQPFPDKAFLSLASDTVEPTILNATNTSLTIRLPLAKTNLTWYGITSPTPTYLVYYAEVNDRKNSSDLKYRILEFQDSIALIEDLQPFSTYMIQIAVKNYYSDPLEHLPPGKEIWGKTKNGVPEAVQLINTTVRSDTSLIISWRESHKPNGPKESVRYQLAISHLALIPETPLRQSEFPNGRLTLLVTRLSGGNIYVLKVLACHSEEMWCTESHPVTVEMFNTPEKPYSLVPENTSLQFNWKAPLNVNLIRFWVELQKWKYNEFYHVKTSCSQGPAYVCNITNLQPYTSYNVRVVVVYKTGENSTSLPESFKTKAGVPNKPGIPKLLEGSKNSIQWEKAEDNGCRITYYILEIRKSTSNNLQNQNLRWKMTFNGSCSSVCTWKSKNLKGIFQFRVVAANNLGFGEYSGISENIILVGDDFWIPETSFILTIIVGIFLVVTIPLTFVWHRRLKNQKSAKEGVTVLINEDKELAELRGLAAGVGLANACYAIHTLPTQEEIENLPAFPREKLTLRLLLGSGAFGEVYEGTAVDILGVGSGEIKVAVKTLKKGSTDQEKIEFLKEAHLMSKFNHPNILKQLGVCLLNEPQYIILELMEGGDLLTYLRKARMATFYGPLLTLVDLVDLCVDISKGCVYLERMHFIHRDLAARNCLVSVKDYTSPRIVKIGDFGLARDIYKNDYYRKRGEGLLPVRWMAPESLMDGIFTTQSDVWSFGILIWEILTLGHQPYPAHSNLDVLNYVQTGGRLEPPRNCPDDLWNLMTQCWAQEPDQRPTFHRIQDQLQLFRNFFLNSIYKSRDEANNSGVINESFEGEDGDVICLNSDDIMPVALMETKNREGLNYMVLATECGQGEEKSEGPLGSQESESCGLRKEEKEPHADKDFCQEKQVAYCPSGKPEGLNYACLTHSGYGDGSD
Chain of CSNK1G3 (human), Q9Y6M4 [K91E/R174G/E302D] (Q9Y6M4 whole entry, looked up, stated change not applied): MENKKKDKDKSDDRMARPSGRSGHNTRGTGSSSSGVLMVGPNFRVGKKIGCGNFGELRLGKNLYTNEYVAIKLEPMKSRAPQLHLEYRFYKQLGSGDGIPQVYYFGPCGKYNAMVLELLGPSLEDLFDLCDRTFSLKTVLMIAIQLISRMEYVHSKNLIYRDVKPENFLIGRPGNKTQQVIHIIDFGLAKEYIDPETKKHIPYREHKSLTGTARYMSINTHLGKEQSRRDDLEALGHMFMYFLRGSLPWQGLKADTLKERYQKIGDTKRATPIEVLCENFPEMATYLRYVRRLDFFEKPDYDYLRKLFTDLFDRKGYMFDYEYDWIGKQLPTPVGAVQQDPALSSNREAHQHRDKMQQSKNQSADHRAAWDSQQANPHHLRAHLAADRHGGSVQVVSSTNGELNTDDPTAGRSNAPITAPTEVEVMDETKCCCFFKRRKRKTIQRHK
Chain of AKT3 (human), Q9Y243 [S472D] (Q9Y243 whole entry S472D, looked up): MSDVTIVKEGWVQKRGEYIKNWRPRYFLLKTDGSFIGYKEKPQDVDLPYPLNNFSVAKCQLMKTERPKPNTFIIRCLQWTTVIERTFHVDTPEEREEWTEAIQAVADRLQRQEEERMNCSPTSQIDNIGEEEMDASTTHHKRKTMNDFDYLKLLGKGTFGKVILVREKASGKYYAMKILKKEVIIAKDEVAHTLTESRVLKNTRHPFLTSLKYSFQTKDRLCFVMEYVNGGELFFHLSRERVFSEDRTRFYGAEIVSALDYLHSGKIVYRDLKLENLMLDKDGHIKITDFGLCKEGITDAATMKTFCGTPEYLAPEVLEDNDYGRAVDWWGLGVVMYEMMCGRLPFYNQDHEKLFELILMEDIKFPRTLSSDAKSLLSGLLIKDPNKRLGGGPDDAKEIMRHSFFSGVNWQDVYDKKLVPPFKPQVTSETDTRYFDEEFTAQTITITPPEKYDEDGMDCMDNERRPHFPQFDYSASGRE
Chain of PHKG2 (human), P15735 [F290L] (P15735 whole entry F290L, looked up): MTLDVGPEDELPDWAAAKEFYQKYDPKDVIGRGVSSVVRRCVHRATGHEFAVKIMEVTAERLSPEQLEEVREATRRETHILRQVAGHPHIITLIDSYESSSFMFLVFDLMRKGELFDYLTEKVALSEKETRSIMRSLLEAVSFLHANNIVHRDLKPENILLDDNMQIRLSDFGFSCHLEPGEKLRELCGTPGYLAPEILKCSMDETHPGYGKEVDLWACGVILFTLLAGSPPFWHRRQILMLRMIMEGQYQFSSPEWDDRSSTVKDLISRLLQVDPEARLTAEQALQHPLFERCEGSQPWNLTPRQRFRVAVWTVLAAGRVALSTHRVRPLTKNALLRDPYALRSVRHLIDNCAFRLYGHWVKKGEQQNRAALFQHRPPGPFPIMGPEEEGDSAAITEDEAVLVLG
Chain of GSK3B (human), P49841 [H350L] (P49841 whole entry, looked up, stated change not applied): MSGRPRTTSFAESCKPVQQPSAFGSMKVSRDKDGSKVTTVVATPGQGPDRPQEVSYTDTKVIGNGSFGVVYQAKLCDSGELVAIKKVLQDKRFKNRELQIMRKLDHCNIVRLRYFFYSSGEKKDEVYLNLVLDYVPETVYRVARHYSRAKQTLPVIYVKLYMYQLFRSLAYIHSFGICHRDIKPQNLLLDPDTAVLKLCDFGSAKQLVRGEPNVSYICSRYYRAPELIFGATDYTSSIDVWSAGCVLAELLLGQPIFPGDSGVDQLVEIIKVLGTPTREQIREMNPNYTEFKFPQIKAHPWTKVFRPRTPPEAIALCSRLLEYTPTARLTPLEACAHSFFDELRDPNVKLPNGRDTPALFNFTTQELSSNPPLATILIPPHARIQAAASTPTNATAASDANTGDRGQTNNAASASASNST

In general, residual activity refers to the signal under treatment as a percentage of the control signal. Turning to `COC(=O)[C@]1(O)C[C@@H]2O[C@@]1(C)n1c3ccccc3c3c4c(c5c6ccccc6n2c5c31)C(=O)NC4`, the residual activity in experiment [1] (compound 10.0 µM) and in experiment [2] (compound 1.0 µM) was 0% in each case.
In the case of `O=C1c2ccccc2-c2n[nH]c3cccc1c23`, the residual activity in experiment [3] (compound 1.0 µM) was 93%; in experiment [3] (compound 10.0 µM) it was 85%; in experiment [1] (compound 1.0 µM) it was 59%; in experiment [1] (compound 10.0 µM), 14%; in experiment [4] (compound 1.0 µM) it was 89%; in experiment [4] (compound 10.0 µM) it was 66%. Also, the residual activity was determined as 77% in experiment [2] (compound 1.0 µM); 15% in experiment [2] (compound 10.0 µM); 83% in experiment [5] (compound 1.0 µM); 31% in experiment [5] (compound 10.0 µM); 74% in experiment [6] (compound 1.0 µM); 58% in experiment [6] (compound 10.0 µM).
As for `O=C1Nc2ccccc2/C1=C1\Nc2ccccc2\C1=N/O`, the residual activity is 105% in experiment [3] (compound 1.0 µM); 88% in experiment [3] (compound 10.0 µM); 78% in experiment [1] (compound 1.0 µM); 24% in experiment [1] (compound 10.0 µM); 95% in experiment [4] (compound 1.0 µM); 64% in experiment [4] (compound 10.0 µM). The residual activity turned out to be 25% in experiment [2] (compound 1.0 µM); 12% in experiment [2] (compound 10.0 µM); 63% in experiment [5] (compound 1.0 µM); 20% in experiment [5] (compound 10.0 µM); 10% in experiment [6] (compound 1.0 µM); 1% in experiment [6] (compound 10.0 µM).
As for `O=C(Nc1cccc(Nc2nccc(Nc3cccc(C(F)(F)F)c3)n2)c1)C1CC1`, the residual activity in experiment [2] (compound 10.0 µM) was 100%.
`CN[C@@H]1C[C@H]2O[C@@](C)([C@@H]1OC)n1c3ccccc3c3c4c(c5c6ccccc6n2c5c31)C(=O)NC4`: the residual activity in experiment [4] (compound 10.0 µM) came out at 0%; in experiment [5] (compound 1.0 µM), 95%; in experiment [5] (compound 10.0 µM) it was 52%.
